This is an account of results in patent US7776890B2, “1H-indazole compounds” (Eisai R&D Management Co., Ltd., priority 2005, dated 2010).

Usually IC50 stands for the concentration at which inhibition is half-maximal. A high value points to lower potency.

The structures appear in SMILES notation.

This assay deals with T1, Human JNK 3 (Homo sapiens, UniProt P53779).
T1 construct: made in house; host or cells: Escherichia coli
As to the kind of experiment: Determination of JNK 3 Inhibition. The class given is biochemical. The note with it: 50% inhibitory concentration on the enzymatic activity of JNK; GST-JNK 3, substrate GST-c-Jun, 3.33 μM of ATP, 30 minutes. How it is done:
Human JNK 3 was expressed as a fusion protein (GST-JNK 3) with glutathione S-transferase (GST) in Escherichia coli and was purified using glutathione Sepharose 4B beads. The amino acid sequence 1-169 of c-Jun was […] as a fusion protein (GST-c-Jun) with GST in Escherichia coli, was purified using glutathione Sepharose 4B beads and was used as a substrate. A test compound was diluted with 100% dimethyl sulfoxide into 10 mM and was then further diluted with 10% aqueous dimethyl sulfoxide solution to yield a dilution series. To each well of 96-well OPTI plate (available from Packard) were placed 20 μl of the diluted compound, 30 μl of a substrate solution (1.2 μg of GST-c-Jun, […], 0.2 μCi of [γ-^33P]ATP, 25 mM of HEPES pH=7.5, 10 mM of magnesium acetate, and 3.33 μM of ATP), and 50 μl of an enzyme solution (0.04 μg of GST-JNK 3, 25 mM of HEPES pH=7.5, and 10 mM magnesium acetate) up to 100 μl, and the mixture was allowed to react for 30 minutes. After terminating the reaction by adding 100 μl of a reaction terminator (80 mM ATP, 50 mg/ml glutathione SPA beads (available from Amersham Pharmacia Biotech)), the reaction mixture was shaken for 30 minutes. The mixture was centrifuged at room temperature at 1000×g for 5 minutes, and the emission intensity thereof was determined on a TopCount™ illuminator (available from Packard). The activity is expressed by the 50% inhibitory concentration on the enzymatic activity of JNK, i.e., IC50 (nM).

T1 sequence (P53779 whole entry): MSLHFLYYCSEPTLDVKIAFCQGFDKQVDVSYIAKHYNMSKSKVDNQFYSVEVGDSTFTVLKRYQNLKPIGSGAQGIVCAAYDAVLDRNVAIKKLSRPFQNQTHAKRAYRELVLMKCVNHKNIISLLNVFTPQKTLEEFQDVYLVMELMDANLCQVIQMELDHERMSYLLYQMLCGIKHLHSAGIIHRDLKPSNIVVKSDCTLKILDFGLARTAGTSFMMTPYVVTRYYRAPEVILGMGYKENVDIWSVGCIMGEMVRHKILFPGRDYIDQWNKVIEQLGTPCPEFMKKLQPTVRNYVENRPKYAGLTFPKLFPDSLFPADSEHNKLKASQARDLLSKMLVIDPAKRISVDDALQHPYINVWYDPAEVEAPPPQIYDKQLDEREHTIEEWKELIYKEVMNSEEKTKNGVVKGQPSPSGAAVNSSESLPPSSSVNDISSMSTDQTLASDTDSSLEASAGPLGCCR

With `CCCOc1c(C(=O)N[C@H](CO)C(C)C)ccc2[nH]nc(-c3cc4ccccc4o3)c12` [Example II-281, 3-Benzo[b]furan-2-yl-4-propoxy-1H-indazole-5-carboxylic acid ((1S)-1-hydroxymethyl-2-methyl-propyl)-amide], the IC50 is 84 nM.
`COc1c(C(=O)NCC2CC2)ccc2[nH]nc(-c3cc4ccccc4o3)c12` [Example II-93, 3-Benzo[b]furan-2-yl-4-methoxy-1H-indazole-5-carboxylic acid cyclopropylmethyl-amide]: it took 137 nM to reach half-maximal inhibition (IC50).
With `O=C(NCCCN1CCCC1=O)c1ccc2[nH]nc(-c3cc4ccccc4s3)c2c1` [Example I-137, N5-[3-(2-Oxotetrahydro-1H-1-pyrrolyl)propyl]-3-benzo[b]thiophen-2-yl-1H-5-indazolecarboxamide] the figure was 54 nM; with `O=C(Cc1ccsc1)Nc1cc(F)c2[nH]nc(-c3cccc(F)c3)c2c1` [Example II-288, N-[7-Fluoro-3-(3-fluorophenyl)-1H-indazol-5-yl]-2-thiophen-3-ylacetamide], 71 nM.
`O=C(Nc1ccc2[nH]nc(-c3cc4ccccc4s3)c2c1)C1CCOC1` (centres unmarked) [Example I-55, N3-(3-Benzo[b]thiophen-2-yl-1H-5-indazolyl)tetrahydro-3-furancarboxamide] gave an IC50 of 52 nM.
With `O=C(Nc1ccc2[nH]nc(-c3ccc4ccccc4c3)c2c1)C1CCNCC1` [Example I-104, N4-[3-(2-Naphthyl)-1H-5-indazolyl]-4-piperidinecarboxamide] the figure was 55 nM; with `COc1c(C(=O)NCc2ccco2)ccc2[nH]nc(-c3cccc(F)c3)c12` [Example II-5, 3-(3-Fluoro-phenyl)-4-methoxy-1H-indazole-5-carboxylic acid (furan-2-ylmethyl)-amide], 100 nM.
`O=C(Nc1ccc2[nH]nc(-c3cc4ccccc4o3)c2c1)c1ccco1` [Example I-48, N2-(3-Benzo[b]furan-2-yl-1H-5-indazolyl)-2-furamide]: the IC50 is 109 nM. This IC50 and that of the compound before are within 1.5-fold of each other.
`CC(=O)c1cccc(-c2n[nH]c3ccc(C(=O)N[C@@H](C)C(N)=O)cc23)c1` [Example I-132, N5-[(1S)-2-Amino-1-methyl-2-oxoethyl]-3-(3-acetylphenyl)-1H-5-indazolecarboxamide]: the IC50 came to 197 nM.
`O=C(Nc1cc2c(-c3ccc4ccccc4c3)n[nH]c2cc1F)C1CC1` [Example II-184, Cyclopropanecarboxylic acid {6-fluoro-3-naphthalen-2-yl-1H-indazol-5-yl}-amide] showed an IC50 of 86 nM. Compared with the last compound, the IC50 is about 2.3-fold lower.
Consider `O=C(NC1CC1)c1ccc2[nH]nc(-c3cccc(F)c3)c2c1` [Example I-143, N5-Cyclopropyl-3-(3-fluorophenyl)-1H-5-indazolecarboxamide], for which the IC50 worked out at 221 nM.
The result for `O=C(c1ccccc1)c1ccc2[nH]nc(-c3cccc(F)c3)c2c1` [Example I-26, [3-(3-Fluorophenyl)-1H-5-indazolyl](phenyl)methanone] reads 113 nM; that for `O=C(Cc1ccsc1)Nc1ccc2[nH]nc(-c3cn4ccccc4n3)c2c1` [Example I-163, N1-(3-Imidazo[1,2-a]pyridin-2-yl-1H-5-indazolyl)-2-(3-thienyl)acetamide], 80 nM; that for `O=C(N[C@@H]1CCOC1=O)c1cc(F)c2[nH]nc(-c3ccc4ccccc4c3)c2c1` [Example II-259, 7-Fluoro-3-naphthalen-2-yl-1H-indazole-5-carboxylic acid [(3R)-2-oxo-tetrahydrofuran-3-yl]amide], 148 nM.
Take `CS(=O)(=O)Nc1cc2c(-c3cc4ccccc4s3)n[nH]c2cc1F` [Example II-218, N-(3-Benzo[b]thiophen-2-yl-6-fluoro-1H-indazol-5-yl)-methanesulfonamide]: the IC50 is 215 nM.
With `O=C(Cc1cccs1)Nc1ccc2[nH]nc(-c3cccc(F)c3)c2c1` [Example I-16, N1-[3-(3-Fluorophenyl)-1H-5-indazolyl]-2-(2-thienyl)acetamide] the figure was 51 nM.
Take `C[C@H](NC(=O)c1ccc2[nH]nc(-c3cc4ccccc4s3)c2c1F)C(N)=O` [Example II-126]: 143 nM corresponded to half-maximal inhibition (IC50).
In turn, `O=C(Cc1cccs1)Nc1cc2c(-c3ccc4ccccc4c3)n[nH]c2cc1F` [Example II-189, N-(6-Fluoro-3-naphthalen-2-yl-1H-indazol-5-yl)-2-thiophen-2-yl-acetamide] came in with an IC50 of 194 nM.
On to `CS(=O)(=O)Nc1ccc2[nH]nc(-c3ccc4ccccc4c3)c2c1` [Example I-94, N-[3-(2-Naphthyl)-1H-5-indazolyl]methanesulfonamide], for which the IC50 stood at 163 nM.
In turn, `COc1cccc(C(=O)NCc2cc3c(-c4ccc5ccccc5c4)n[nH]c3cc2F)c1` [Example II-208, N-{6-Fluoro-3-naphthalen-2-yl-1H-indazol-5-ylmethyl}-3-methoxy-benzamide] had an IC50 of 143 nM.
